Laboratory results reported in ChEMBL document CHEMBL1955845, “Antiviral effect of geraniin on human enterovirus 71 in vitro and in vivo” (Bioorg Med Chem Lett, 2012).
≈ marks a conversion by molar mass, not a printed value. Calls of active or inactive are those of the source. The calls are words filed in the database; no cut-off is given here.

Assays:
Enterovirus A71 [1] = assay: Antiviral activity against C4 type Human enterovirus 71 MP10 infected in ICR mouse assessed as delay in appearance of infection symptoms at 0.4 mg/kg, ip administered 2 hrs post infection qd for 7 days measured up to 14 days; format: functional, organism-based; parameters: dose 0.4 mg/kg
Enterovirus A71 [2] = assay: Antiviral activity against C4 type Human enterovirus 71 FY0805 infected in human RD cells assessed as inhibition of infectious virus yeild at 20 ug/ml treated 2 hrs post infection measured after 32 to 72 hrs by TCID50 assay relative to control; format: functional, organism-based
Enterovirus A71 [3] = assay: Antiviral activity against C4 type Human enterovirus 71 MP10 infected in ICR mouse assessed as increase in survival rate at 1 mg/kg, ip administered 2 hrs post infection qd for 7 days measured up to 14 days; format: functional; conditions: route intraperitoneal
Enterovirus A71 [4] = assay: Antiviral activity against C4 type Human enterovirus 71 MP10 infected in ICR mouse assessed as recovery at 0.4 mg/kg, ip administered 2 hrs post infection qd for 7 days measured up to 14 days; format: functional, organism-based; parameters: dose 0.4 mg/kg
Enterovirus A71 [5] = assay: Antiviral activity against C4 type Human enterovirus 71 MP10 infected in ICR mouse assessed as disappearance of ruffled hair at 0.4 mg/kg, ip administered 2 hrs post infection qd for 7 days measured up to 14 days; format: functional, organism-based; parameters: dose 0.4 mg/kg
Enterovirus A71 [6] = assay: Antiviral activity against C4 type Human enterovirus 71 FY0805 infected in human RD cells assessed as inhibition of viral replication by plaque reduction assay; format: functional, organism-based; conditions: Enterovirus A
Enterovirus A71 [7] = assay: Antiviral activity against C4 type Human enterovirus 71 MP10 infected in ICR mouse assessed as increase in survival rate at 0.4 mg/kg, ip administered 2 hrs post infection qd for 7 days measured up to 14 days; format: functional; conditions: route intraperitoneal
Enterovirus A71 [8] = assay: Antiviral activity against C4 type Human enterovirus 71 MP10 infected in ICR mouse assessed as delay in paralysis at 0.4 mg/kg, ip administered 2 hrs post infection qd for 7 days measured up to 14 days; format: functional, organism-based; parameters: dose 0.4 mg/kg
[9] = Selectivity index, ratio of CC50 for human RD cells to IC50 for C4 type Human enterovirus 71 FY0805; format: functional
Mus musculus = assay: Toxicity in Human enterovirus 71 MP10 infected ICR mouse at 0.4 to 1 mg/kg, ip qd for 7 days measured up to 14 days; format: organism-based; parameters: dose 0.4-1 mg/kg, route intraperitoneal; conditions: in vivo
Enterovirus A71 [10] = assay: Antiviral activity against C4 type Human enterovirus 71 FY0805 infected in human RD cells assessed as inhibition of […] at 20 ug/ml treated 2 hrs post infection measured after 32 to 72 hrs by qRT-PCR analysis relative to control; format: functional, organism-based
Enterovirus A71 [11] = assay: Antiviral activity against C4 type Human enterovirus 71 MP10 infected in ICR mouse assessed as inhibition of viral replication in muscle at 0.4 mg/kg, ip administered 2 hrs post infection qd for 7 days measured up to 7 days by qRT-PCR analysis; format: functional, organism-based; parameters: dose 0.4 mg/kg; conditions: Muscle tissue
[12] = Cytotoxicity against human RD cells; format: cell-based
Enterovirus A71 [13] = assay: Antiviral activity against Human enterovirus 71 infected in mouse assessed as increase in survival rate; format: functional
Enterovirus A71 [14] = assay: Antiviral activity against C4 type Human enterovirus 71 MP10 infected in ICR mouse assessed as increase in survival rate at 50 mg/kg, ip administered 2 hrs post infection qd for 7 days measured up to 14 days; format: functional; conditions: route intraperitoneal

Compound	Activity (Enterovirus A71 [1])	inhibition (Enterovirus A71 [2])	Activity (Enterovirus A71 [3])	Activity (Enterovirus A71 [4])	Activity (Enterovirus A71 [5])	IC50 (Enterovirus A71 [6])	Activity (Enterovirus A71 [7])	Activity (Enterovirus A71 [8])	Ratio CC50/IC50 [9]	Activity (Mus musculus)	inhibition (Enterovirus A71 [10])	inhibition (Enterovirus A71 [11])	CC50 [12]	Activity (Enterovirus A71 [13])	Activity (Enterovirus A71 [14])
O=C1O[C@H]2[C@@H]3OC(=O)c4cc(O)c(O)c(O)c4-c4c(cc(O)c(O)c4O)C(=O)OC[C@H]2O[C@@H](OC(=O)c2cc(O)c(O)c(O)c2)[C@@H]3OC(=O)c2cc(O)c(O)c3c2[C@@H]2C1=CC(=O)[C@](O)(O3)C2(O)O [GERANIIN]	Active	Active	40%	Active	Active	10 µg/mL (≈ 10.5 µM)	35%	Active	20	Non-toxic	Active	Active	200 µg/mL (≈ 210 µM)		
O[C@H]1[C@H]2c3cc4c(cc3CN3CCC(=C[C@@H]1O)[C@H]23)OCO4 [LYCORINE]														18%	
NC(=O)c1ncn([C@@H]2O[C@H](CO)[C@@H](O)[C@H]2O)n1 [RIBAVIRIN]						60 µg/mL (≈ 246 µM)									5%
